The NIST ThermoML archive (doi:10.1021/je100832h)

Conditions: Liquid; for mass density: 101.32 kPa, Vibrating tube method; for vapor or sublimation pressure: Ebulliometric method (Recirculating still)

CCOC(C)=O [ethyl acetate]
Conditions	mass density [kg/m3]	vapor or sublimation pressure [kPa]
291.15 K	902.88	–
297.17 K	–	11.89
298.15 K	894.4	–
303.35 K	–	16.04
306.25 K	–	18.33
308.86 K	–	20.64
310.67 K	–	22.44
312.53 K	–	24.34
315.44 K	–	27.63
318.15 K	869.6	–
318.46 K	–	31.33
321.01 K	–	34.85
323.47 K	–	38.43
324.8 K	–	40.61
327.41 K	–	44.98
328.15 K	857.17	–
329.77 K	–	49.27
331.51 K	–	52.56
333.07 K	–	55.72
335.02 K	–	59.91
336.33 K	–	62.83
337.91 K	–	66.49
339.09 K	–	69.34
340.23 K	–	72.26
341.69 K	–	76.02
343.03 K	–	79.83
344.11 K	–	82.56
345.53 K	–	86.85
346.86 K	–	90.81
348.09 K	–	94.63
348.75 K	–	96.74
349.45 K	–	98.97
349.56 K	–	99.36
349.76 K	–	100.07
349.93 K	–	100.68
350.15 K	–	101.32
351.12 K	–	104.65
351.77 K	–	106.84
352.12 K	–	108.13
352.94 K	–	111.21
353.91 K	–	114.65
354.43 K	–	116.46
354.93 K	–	118.56
355.5 K	–	120.68
355.91 K	–	122.31
356.37 K	–	124
357.35 K	–	127.89
357.92 K	–	130
358.74 K	–	133.45
359.44 K	–	136.34
360.03 K	–	139.07
360.88 K	–	142.55
361.73 K	–	146.37
362.62 K	–	150.43
363.72 K	–	155.58
364.25 K	–	157.94
364.81 K	–	160.53
365.52 K	–	163.99
366.29 K	–	167.81
367 K	–	171.33
367.64 K	–	174.65
367.98 K	–	176.37
368.83 K	–	180.88
369.49 K	–	184.43
370.07 K	–	187.47
370.69 K	–	190.92
371.5 K	–	195.35

CCCCCCC [heptane]
Conditions	mass density [kg/m3]	vapor or sublimation pressure [kPa]
291.15 K	685.28	–
298.15 K	679.48	–
305.26 K	–	8.32
310.22 K	–	10.55
314.93 K	–	13.09
316.5 K	–	14.07
318.15 K	662.06	–
319.71 K	–	16.19
323.62 K	–	19.1
326.44 K	–	21.45
328.15 K	653.6	–
329.04 K	–	23.79
331.48 K	–	26.14
333.21 K	–	27.97
335.5 K	–	30.51
337.48 K	–	32.84
339.56 K	–	35.53
341.35 K	–	37.87
342.96 K	–	40.12
344.47 K	–	42.35
346.04 K	–	44.75
347.28 K	–	46.71
348.72 K	–	49.09
350.12 K	–	51.49
351.21 K	–	53.41
352.49 K	–	55.76
353.62 K	–	57.88
354.79 K	–	60.18
356.25 K	–	63.11
357.84 K	–	66.42
358.68 K	–	68.27
359.98 K	–	71.15
361.33 K	–	74.25
362.3 K	–	76.55
363.32 K	–	79
364.24 K	–	81.28
365.32 K	–	84.05
366.2 K	–	86.3
366.87 K	–	88.1
367.97 K	–	91.09
368.83 K	–	93.46
369.84 K	–	96.33
370.85 K	–	98.98
371.11 K	–	100
371.35 K	–	100.68
371.56 K	–	101.32
372.42 K	–	103.92
373.25 K	–	106.48
373.98 K	–	108.71
374.93 K	–	111.77
375.41 K	–	113.35
376.29 K	–	116.21
377.17 K	–	119.14
377.51 K	–	120.32
378.49 K	–	123.7
379.37 K	–	126.8
380.26 K	–	130
380.83 K	–	132.04
392.89 K	–	182.39
393.79 K	–	186.6
394.43 K	–	189.67
395.1 K	–	192.97
395.73 K	–	196.04
396.09 K	–	197.85
396.5 K	–	199.97
